Read-outs that look alike come from different tables or passages of the source. No end group written: not given here.
Experiments:
DPP-4 [1] = biological target: T1, DPP-4 (Homo sapiens, UniProt P27487); experiment: DPP-4 inhibitory activity (Gly-Pro-p-nitroanilide substrate); assay type: biochemical; conditions: for IC50: 25 μl sample + 25 μl Gly-Pro-p-nitroanilide (3.2 mM), preincubated 37 °C 10 min, 50 μl DPP-4 (0.02 U/ml), 60 min, 100 mM tris buffer (pH 7.6), absorbance at 405 nm
T1 construct: purchased Sigma-Aldrich Co., St. Louis, MO, USA
T1 sequence (P27487 whole entry, species assumed): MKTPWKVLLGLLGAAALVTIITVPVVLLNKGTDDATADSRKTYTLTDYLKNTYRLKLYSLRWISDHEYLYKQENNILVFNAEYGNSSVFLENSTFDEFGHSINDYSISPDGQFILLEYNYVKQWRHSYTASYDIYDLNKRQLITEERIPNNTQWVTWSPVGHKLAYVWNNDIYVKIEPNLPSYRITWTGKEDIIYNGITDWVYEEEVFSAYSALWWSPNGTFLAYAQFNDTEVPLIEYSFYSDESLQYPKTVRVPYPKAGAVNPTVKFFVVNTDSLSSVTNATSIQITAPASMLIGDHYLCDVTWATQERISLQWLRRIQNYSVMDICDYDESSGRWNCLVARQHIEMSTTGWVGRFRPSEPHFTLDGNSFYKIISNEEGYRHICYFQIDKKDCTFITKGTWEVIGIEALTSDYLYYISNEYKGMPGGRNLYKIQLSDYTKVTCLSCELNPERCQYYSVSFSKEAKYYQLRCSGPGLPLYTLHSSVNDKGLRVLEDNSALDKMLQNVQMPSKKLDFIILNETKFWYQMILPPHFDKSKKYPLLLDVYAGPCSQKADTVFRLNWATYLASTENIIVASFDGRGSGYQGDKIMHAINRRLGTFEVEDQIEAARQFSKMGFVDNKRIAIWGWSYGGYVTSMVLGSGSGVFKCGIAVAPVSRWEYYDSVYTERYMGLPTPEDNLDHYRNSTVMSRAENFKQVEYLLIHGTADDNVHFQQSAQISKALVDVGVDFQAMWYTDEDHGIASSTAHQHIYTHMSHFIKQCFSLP
Procedure: Determination of DPP-4 inhibitory activity
The DPP-4 inhibitory activity of the synthesized peptides was determined as previously described, with slight modifications. Briefly, 25 μl of the sample and 25 μl of Gly-Pro-p-nitroanilide (3.2 mM) were preincubated at 37 °C for 10 min before 50 μl of DPP-4 (0.02 U/ml) was added to the mixture (Sigma-Aldrich Co., St. Louis, MO, USA). After 60 min, the reaction was halted by adding 100 μl of 1 M sodium acetate solution. The absorbance at 405 nm was measured using a microplate reader (Thermo Fisher Scientific, Waltham, MA, USA). DPP-4 inhibition (DI) was calculated as follows: DI%=1−Asample−Asample blank/Apositive−Anegative×100% (5) where A(sample) represents the optical density of DPP-4 in the presence of both the substrate and peptide. A(sample blank) represents the optical density of the 100 mM tris buffer (pH 7.6). A(positive) represents the optical density of the enzyme and substrate in the absence of an inhibitor. A(negative) represents the optical density of the enzyme in the absence of substrate and inhibitor.

DPP-4 [2] = biological target: T1, DPP-4; conditions: methodologies differ among studies; cited from earlier work

Row | IC50 (DPP-4 [1]) [µM] | Substance | other results
1 |  | FVAPFPEV [peptide from α-S1-casein, pepsin (pH 1.3), pepsin (pH > 2); synthesized] | DPP-4 inhibitory effect (in words) (DPP-4 [1]; in vitro): poor inhibitory effect
2 | 645 | GPVRGPF [GPVRGPF] | 
3 |  | TPEVDDEALEK [peptide from previous study [6]] | IC50 (DPP-4 [2]): 320 µM
4 | 1610 | HPHPHL [HPHPHL] | 

Source: article PMC11182572, “Mining Bovine Milk Proteins for DPP-4 Inhibitory Peptides Using Machine Learning and Virtual Proteolysis” (Research, 2024)
